Measurements from ChEMBL document CHEMBL4392834, “Polymorphs, co-crystal structure and pharmacodynamics study of MBRI-001, a deuterium-substituted plinabulin derivative as a tubulin polymerization inhibitor” (Bioorg Med Chem, 2019).

Assays:
NCI-H1975 [1] = assay: Antiproliferative activity in human NCI-H1975 cells assessed as inhibition of cell proliferation at 25 nM incubated for 72 hrs by MTT assay; type: functional; details: NCI-H1975, 72 h
A549 [2] = assay: Antitumor activity against human A549 cells xenografted in Balb/c nude mouse assessed as tumor volume at 3 mg/kg, iv dosed as Q3D x 3 weeks regime relative to untreated control; type: functional
[3] = Toxicity in human A549 cells xenografted Balb/c nude mouse assessed as body weight change weight at 6 mg/kg, iv dosed on day 0, 3, 6, 9, 12, 15 and 18 regime (reference value: 6.96%); type: organism-based; details: in vivo
A549 [4] = assay: Antitumor activity against human A549 cells xenografted in Balb/c nude mouse assessed as tumor weight at 6 mg/kg, iv dosed as Q3D x 3 weeks regime (reference value: 0.596 +/- 0.042 g); type: functional
A549 [5] = assay: Antiproliferative activity in human A549 cells assessed as inhibition of cell proliferation at 6.25 nM incubated for 72 hrs by MTT assay; type: functional; details: A549, 72 h
[6] = Toxicity in Balb/c nude mouse dosed intravenously every 3 days for consecutive 21 days; type: organism-based; details: in vivo, iv
A549 [7] = assay: Antitumor activity against human A549 cells xenografted in Balb/c nude mouse assessed as tumor volume at 6 mg/kg, iv dosed as Q3D x 3 weeks regime relative to untreated control; type: functional
NCI-H1975 [8] = assay: Antiproliferative activity in human NCI-H1975 cells assessed as inhibition of cell proliferation at 50 nM incubated for 72 hrs by MTT assay; type: functional; details: NCI-H1975, 72 h
A549 [9] = assay: Antitumor activity against human A549 cells xenografted in Balb/c nude mouse assessed as tumor weight at 12 mg/kg, iv dosed as Q3D x 3 weeks regime (reference value: 0.596 +/- 0.042 g); type: functional
A549 [10] = assay: Antiproliferative activity in human A549 cells assessed as inhibition of cell proliferation at 3.125 nM incubated for 72 hrs by MTT assay; type: functional; details: A549, 72 h
NCI-H1975 [11] = assay: Antiproliferative activity in human NCI-H1975 cells assessed as inhibition of cell proliferation at 3.125 nM incubated for 72 hrs by MTT assay; type: functional; details: NCI-H1975, 72 h
A549 [12] = assay: Antiproliferative activity in human A549 cells assessed as inhibition of cell proliferation at 50 nM incubated for 72 hrs by MTT assay; type: functional; details: A549, 72 h
A549 [13] = assay: Antitumor activity against human A549 cells xenografted in Balb/c nude mouse assessed as tumor weight at 3 mg/kg, iv dosed as Q3D x 3 weeks regime (reference value: 0.596 +/- 0.042 g); type: functional
NCI-H1975 [14] = assay: Antiproliferative activity in human NCI-H1975 cells assessed as inhibition of cell proliferation at 1.5625 nM incubated for 72 hrs by MTT assay; type: functional; details: NCI-H1975, 72 h
NCI-H1975 [15] = assay: Antiproliferative activity in human NCI-H1975 cells assessed as inhibition of cell proliferation at 6.25 nM incubated for 72 hrs by MTT assay; type: functional; details: NCI-H1975, 72 h
[16] = Toxicity in human A549 cells xenografted Balb/c nude mouse assessed as body weight change weight at 3 mg/kg, iv dosed on day 0, 3, 6, 9, 12, 15 and 18 regime (reference value: 6.96%); type: organism-based; details: in vivo
A549 [17] = assay: Cytotoxicity in human A549 cells assessed as reduction in cell viability incubated for 72 hrs by MTT assay; type: functional, cell-based; details: A549, 72 h
A549 [18] = assay: Antiproliferative activity in human A549 cells assessed as inhibition of cell proliferation at 12.5 nM incubated for 72 hrs by MTT assay; type: functional; details: A549, 72 h
A549 [19] = assay: Antitumor activity against human A549 cells xenografted in Balb/c nude mouse assessed as tumor volume at 12 mg/kg, iv dosed as Q3D x 3 weeks regime relative to untreated control; type: functional
[20] = Toxicity in human A549 cells xenografted Balb/c nude mouse assessed as body weight change weight at 12 mg/kg, iv dosed on day 0, 3, 6, 9, 12, 15 and 18 regime (reference value: 6.96%); type: organism-based; details: in vivo
NCI-H1975 [21] = assay: Antiproliferative activity in human NCI-H1975 cells assessed as inhibition of cell proliferation at 12.5 nM incubated for 72 hrs by MTT assay; type: functional; details: NCI-H1975, 72 h
A549 [22] = assay: Antiproliferative activity in human A549 cells assessed as inhibition of cell proliferation at 1.5625 nM incubated for 72 hrs by MTT assay; type: functional; details: A549, 72 h
A549 [23] = assay: Antiproliferative activity in human A549 cells assessed as inhibition of cell proliferation at 25 nM incubated for 72 hrs by MTT assay; type: functional; details: A549, 72 h
NCI-H1975 [24] = assay: Cytotoxicity in human NCI-H1975 cells assessed as reduction in cell viability incubated for 72 hrs by MTT assay; type: functional, cell-based; details: NCI-H1975, 72 h
A549 [25] = assay: Antitumor activity against human A549 cells xenografted in Balb/c nude mouse assessed as tumor weight at 10 mg/kg, iv dosed as QW x 3 weeks regime (reference value: 0.596 +/- 0.042 g); type: functional
[26] = Toxicity in human A549 cells xenografted Balb/c nude mouse assessed as body weight change weight at 10 mg/kg, iv dosed on day 0, 7 and 14 (reference value: 6.96%); type: organism-based; details: in vivo
A549 [27] = assay: Antitumor activity against human A549 cells xenografted in Balb/c nude mouse assessed as tumor volume at 10 mg/kg, iv dosed as QW x 3 weeks regime relative to untreated control; type: functional
Tubulin (Homo sapiens) = Tubulin (Homo sapiens) (UniProt P68371+Q9H4B7+P0DPH7+P68366+Q13509+Q71U36+P04350+Q3ZCM7+P07437+P68363+Q9BQE3+Q6PEY2+Q13885+Q9BVA1+Q9BUF5); assay: Inhibition of tubulin (unknown origin) polymerization at 5 uM; type: protein-complex assay

Structure (SMILES)	inhibition at 0.025 µM (NCI-H1975 [1])	Activity [3]	Activity (A549 [4])	inhibition at 0.00625 µM (A549 [5])	T/C (A549 [7])	inhibition at 0.05 µM (NCI-H1975 [8])	Activity (A549 [9])	inhibition at 0.003125 µM (A549 [10])	inhibition at 0.003125 µM (NCI-H1975 [11])	inhibition at 0.05 µM (A549 [12])	inhibition at 0.0015625 µM (NCI-H1975 [14])	inhibition at 0.00625 µM (NCI-H1975 [15])	IC50 (A549 [17])	inhibition at 0.0125 µM (A549 [18])	T/C (A549 [19])	Activity [20]	inhibition at 0.0125 µM (NCI-H1975 [21])	inhibition at 0.0015625 µM (A549 [22])	inhibition at 0.025 µM (A549 [23])	IC50 (NCI-H1975 [24])	other results
[2H]/C(c1nc[nH]c1C(C)(C)C)=c1/[nH]c(=O)/c(=C/c2ccccc2)[nH]c1=O	90.4 to 91.5%	6.78%	0.344 g	82 to 86.7%	59.01%	90.8 to 91.7%	0.308 g	54.8 to 61.6%	3.64 to 12.3%	83.2 to 87.9%	2.75 to 10.3%	12.3 to 22.6%	2.5 nM	83.2 to 86.3%	54.39%	2.36%	70.7 to 81.7%	0.92 to 9.22%	88 to 88.7%	9.3 nM	T/C (A549 [2]): 70.88%; LD50 at 21 days [6]: 18.9 mg/kg; Activity (A549 [13]): 0.442 g; Activity [16]: 6.75%
CC(=O)O[C@@]12CO[C@@H]1C[C@H](O)[C@@]1(C)C(=O)[C@H](O)C3=C(C)[C@@H](OC(=O)[C@H](O)[C@@H](NC(=O)OC(C)(C)C)c4ccccc4)C[C@@](O)([C@@H](OC(=O)c4ccccc4)[C@H]21)C3(C)C [DOCETAXEL ANHYDROUS]	–	–	–	–	–	–	–	–	–	–	–	–	–	–	–	–	–	–	–	–	Activity (A549 [25]): 0.13 g; Activity [26]: -0.66%; T/C (A549 [27]): 26.5%
CC(C)(C)c1[nH]cnc1/C=c1\[nH]c(=O)/c(=C/c2ccccc2)[nH]c1=O [PLINABULIN]	86.3 to 90.8%	5.66%	0.349 g	88 to 88.7%	61.48%	88.7 to 91.3%	0.327 g	42.5 to 50.8%	3.89 to 15.5%	86.6 to 89.2%	1.03 to 11.2%	13.3 to 25.7%	3.5 nM	85.1 to 88.9%	56.7%	6.33%	61.1 to 69.1%	23.3 to 29.4%	88.4 to 89.5%	10.2 nM	inhibition (Tubulin (Homo sapiens)): 27.9%; inhibition (Tubulin (Homo sapiens); tested as the 2H-labelled form): 30.1%
